The values that follow come from paper PMC4658274 (The Analyst, 2015).

SMILES strings stand for the structures. pIC50, pKi: −log10 of the molar value.

In general, pIC50 refers to the IC50 on a negative log10 scale, so that one unit is a factor of ten. Read a low pIC50 as a large IC50. As usually defined, the pKi is −log10 of the Ki, conventionally taken in molar units. A higher pKi goes with a small Ki.

This experiment addresses hERG potassium channel (Homo sapiens, UniProt Q12809). As to the kind of experiment: radio-ligand competitive binding assay.

hERG potassium channel, sequence (Q12809 whole entry): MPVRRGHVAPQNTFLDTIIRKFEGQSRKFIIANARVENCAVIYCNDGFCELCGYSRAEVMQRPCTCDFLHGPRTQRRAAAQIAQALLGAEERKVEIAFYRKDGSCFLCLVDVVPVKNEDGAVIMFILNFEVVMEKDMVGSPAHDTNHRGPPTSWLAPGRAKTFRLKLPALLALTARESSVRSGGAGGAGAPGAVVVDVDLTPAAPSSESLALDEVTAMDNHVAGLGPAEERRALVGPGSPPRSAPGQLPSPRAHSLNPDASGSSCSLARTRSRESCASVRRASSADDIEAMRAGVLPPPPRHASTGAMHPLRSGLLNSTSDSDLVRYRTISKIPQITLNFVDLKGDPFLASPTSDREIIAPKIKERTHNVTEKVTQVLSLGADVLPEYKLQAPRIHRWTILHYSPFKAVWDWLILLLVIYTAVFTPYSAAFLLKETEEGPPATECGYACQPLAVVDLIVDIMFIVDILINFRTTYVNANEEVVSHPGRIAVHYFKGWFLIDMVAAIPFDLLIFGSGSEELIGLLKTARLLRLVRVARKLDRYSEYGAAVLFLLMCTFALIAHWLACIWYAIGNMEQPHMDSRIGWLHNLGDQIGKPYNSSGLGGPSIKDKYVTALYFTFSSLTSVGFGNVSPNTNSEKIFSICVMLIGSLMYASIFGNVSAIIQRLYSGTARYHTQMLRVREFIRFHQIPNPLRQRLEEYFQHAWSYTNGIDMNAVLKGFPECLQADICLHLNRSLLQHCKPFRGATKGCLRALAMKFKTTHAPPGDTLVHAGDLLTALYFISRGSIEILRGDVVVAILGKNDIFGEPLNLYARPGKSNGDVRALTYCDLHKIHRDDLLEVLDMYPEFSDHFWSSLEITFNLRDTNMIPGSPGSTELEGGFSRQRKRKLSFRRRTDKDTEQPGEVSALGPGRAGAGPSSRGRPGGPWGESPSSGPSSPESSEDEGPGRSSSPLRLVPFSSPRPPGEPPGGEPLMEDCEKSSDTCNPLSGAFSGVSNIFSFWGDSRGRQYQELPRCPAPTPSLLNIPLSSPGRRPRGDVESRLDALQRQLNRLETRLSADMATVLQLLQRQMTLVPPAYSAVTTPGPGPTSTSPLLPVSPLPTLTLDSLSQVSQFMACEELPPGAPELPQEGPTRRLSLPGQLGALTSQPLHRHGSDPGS

As for `CN1CCN(CCCCN2C(=O)CN(/N=C/c3ccc(-c4ccc(Cl)cc4)o3)C2=O)CC1` [Azimilide], the pIC50 was 5.72 and the pKi was 6.02.
